The nature of data set [1]: Evaluation for dissolvability of phytochemical (dissolution rate in water). The conditions noted are these: for Dissolution rate: ultrapure water, shaken for 3 hours, centrifuged supernatant. The text has this:
In the present invention, the “dissolution rate” is an index indicating dissolvability of a compound into water, and is also represented by the value, in terms of the percentage (%), obtained by dividing a concentration (w/v) of the compound in a supernatant, which is obtained by shaking the compound in pure water to dissolve the compound therein and by centrifuging the solution, by a concentration (w/v) of the compound in pure water before being dissolved therein. The concentration may be measured by using a spectrophotometer. […] The temperature condition in the measurement of the “dissolution rate” is set to 21±2° C.
Furthermore, 10 mL of ultrapure water was added to the glucoside phytochemical such that the amount of aglycone (portion other than carbohydrate obtained by hydrolysis of glucoside) can be equal to 33.3 mg; namely, 67.3 mg of rutin (33.3 mg of quercetin); 89.6 mg of α-glucosyl rutin (33.3 mg of quercetin); 67.3 mg of hesperidin (33.3 mg of hesperetin); or 71.0 mg of naringin (33.3 mg of naringenin). As for the terpenoids, in accordance with the administering amount used in Experiments, 10 mL of ultrapure water was added to 3.3 mg of each of β-carotene and lycopene. The solutions thus prepared were shaken for 3 hours, and then, were centrifuged at 2000×g for 10 minutes. The centrifuged supernatants were filtrated by using a 0.45 μL filter. […] Each compound was dissolved in 80% methanol or methanol to obtain a calibration curve; and then, the concentration of the centrifuged supernatant was obtained. A series of the operations above were carried out under the temperature condition of 21±2° C. The dissolution rate was calculated in accordance with the following formula. Dissolution rate (%)=[(concentration of the centrifuged supernatant after dissolution by shaking (w/v))+(concentration of the solution before dissolution by shaking (w/v)]×100

Data set [2] can be described thus: Experiment 1: promoting absorption of β-carotene, yogurts of OLL1251 and other strains. The class given is in vivo. The settings on record: male, SD, oral; rat serum, 5 mg/kg-body weight β-carotene, 11.3 g/kg-body weight yogurt, up to 480 minutes; read-out: Area Under the blood concentration-time Curve (AUC) of β-carotene (converted). The protocol:
(§1) Column temperature was set at 40° C.
The yogurts thus obtained contained 136 μg/g, 88 μg/g, and 68 μg/g of the polysaccharide, respectively.

The nature of data set [3]: Experiment 3: promoting absorption of β-carotene, yogurts of strain combinations. The class given is in vivo. The settings on record: male, SD, oral; rat serum, 5 mg/kg-body weight β-carotene, 11.3 g/kg-body weight yogurt, up to 480 minutes; read-out: Area Under the blood concentration-time Curve (AUC) of β-carotene (converted). On the procedure:
as §1
The yogurts thus obtained contained 15 μg/g, 54 μg/g, and 67 μg/g of the polysaccharide, respectively.

The nature of data set [4]: Experiment 5: promoting absorption of β-carotene, comparison with other absorption promotors. The class given is in vivo. The settings on record: male, SD, oral; rat serum, 5 mg/kg-body weight β-carotene, 70 mg/kg-body weight polysaccharide, up to 480 minutes; read-out: Area Under the blood concentration-time Curve (AUC) of β-carotene (converted). The protocol: A part of the yogurt of Experiment 4 (Lactobacillus bulgaricus OLL1251 and Streptococcus thermophilus OLS3290) was taken; and then, to the supernatant thereof was added ethanol the amount of which was three times as much as the supernatant. The resulting mixture was kept in a frozen state, and thereafter, the supernatant of the mixture was centrifuged to obtain a precipitate. This precipitate was freeze-dried to obtain a polysaccharide concentrate. In 11.3 g of the yogurt, 70 mg of the polysaccharide concentrate was included. Hereinafter, the polysaccharide concentrate obtained is called “lactic acid bacterium-originated polysaccharide concentrate”.

The next data set is described as follows: in vivo. The conditions noted are these: male, SD, rat, 5 mg/kg.
[5] abbreviates: concentration of the centrifuged supernatant after shaking in ultrapure water, 21±2° C., glucosides in terms of the aglycone.

Read-outs that look alike come from different tables or passages of the source.

On to `CC1=C(/C=C/C(C)=C/C=C/C(C)=C/C=C/C=C(C)/C=C/C=C(C)/C=C/C(=O)[C@]2(C)C[C@@H](O)CC2(C)C)C(C)(C)C[C@H](O)C1` [Capsanthin], for which the Saturated solubility in data set [1] is on record as 0.1 or less mg/100 g. The Dissolution rate in data set [1] (21±2° C.) is 0.1% or less.
`Oc1cc(O)c2c(c1)O[C@H](c1ccc(O)c(O)c1)[C@H](O)C2` [Epicatechin] displayed a Saturated solubility in data set [1] of 287 mg/100 g.
The compound `O=c1c(-c2ccc(O)cc2)coc2cc(O)cc(O)c12` [Genistein] displayed a Saturated solubility in data set [1] (setting [5]) of 0.6 mg/100 g. This compound also registered a Dissolution rate in data set [1] (21±2° C.) of 0.2%.
For `COc1ccc([C@@H]2CC(=O)c3c(O)cc(O[C@@H]4O[C@H](CO[C@@H]5O[C@@H](C)[C@H](O)[C@@H](O)[C@H]5O)[C@@H](O)[C@H](O)[C@H]4O)cc3O2)cc1O` [Hesperidin], in data set [1] (setting [5]), the Saturated solubility was determined as 0.5 mg/100 g. Besides, the Dissolution rate in data set [1] (21±2° C.) is 0.2%.
For `O=c1c(O)c(-c2ccc(O)cc2)oc2cc(O)cc(O)c12` [Kaempferol], in data set [1], the Saturated solubility was determined as 0.1 mg/100 g. In addition, in data set [1] (21±2° C.), the Dissolution rate is reported as 0.1% or less.
In the case of `CC1=C[C@H](O)CC(C)(C)[C@H]1/C=C/C(C)=C/C=C/C(C)=C/C=C/C=C(C)/C=C/C=C(C)/C=C/C1=C(C)C[C@@H](O)CC1(C)C` [Lutein], in data set [1], the Saturated solubility is recorded as 0.1 or less mg/100 g. The Dissolution rate in data set [1] (21±2° C.) is recorded as 0.1% or less.
Take `O=c1cc(-c2ccc(O)c(O)c2)oc2cc(O)cc(O)c12` [Luteolin]: the Saturated solubility in data set [1] is on record as 0.1 or less mg/100 g. The Dissolution rate in data set [1] (21±2° C.) was 0.1% or less.
On to `CC(C)=CCC/C(C)=C/C=C/C(C)=C/C=C/C(C)=C/C=C/C=C(C)/C=C/C=C(C)/C=C/C=C(\C)CCC=C(C)C` [Lycopene], for which, in data set [1], the Saturated solubility is reported as 0.1 or less mg/100 g. Besides, in data set [1] (21±2° C.), the Dissolution rate is given as 0.1% or less.
Taken in the same sequence, the figures for `O=C1C[C@@H](c2ccc(O)cc2)Oc2cc(O)cc(O)c21` [Naringenin] were 1.1 mg/100 g and 0.3%.
In data set [1], `C[C@@H]1O[C@@H](O[C@H]2[C@H](Oc3cc(O)c4c(c3)O[C@H](c3ccc(O)cc3)CC4=O)O[C@H](CO)[C@@H](O)[C@@H]2O)[C@H](O)[C@H](O)[C@H]1O` [Naringin] came in with a Saturated solubility of 55 mg/100 g. The compound also came in with a Dissolution rate in data set [1] (21±2° C.) of 17%.
Taken in the same sequence, the figures for `O=c1c(O)c(-c2ccc(O)c(O)c2)oc2cc(O)cc(O)c12` [Quercetin] were 0.1 mg/100 g and 0.1% or less.
Compound `C[C@@H]1O[C@@H](OC[C@H]2O[C@@H](Oc3c(-c4ccc(O)c(O)c4)oc4cc(O)cc(O)c4c3=O)[C@H](O)[C@@H](O)[C@@H]2O)[C@H](O)[C@H](O)[C@H]1O` [Rutin] had a Saturated solubility in data set [1] of 1.0 mg/100 g.
Turning to `CC1=CCCC(C)(C)C1/C=C/C(C)=C/C=C/C(C)=C/C=C/C=C(C)/C=C/C=C(C)/C=C/C1=C(C)CCCC1(C)C` (stereo not drawn) [α-Carotene], the Saturated solubility in data set [1] was 0.1 or less mg/100 g. The Dissolution rate in data set [1] (21±2° C.) is 0.1% or less.
Turning to `CC1=C(/C=C/C(C)=C/C=C/C(C)=C/C=C/C=C(C)/C=C/C=C(C)/C=C/C2=C(C)CCCC2(C)C)C(C)(C)CCC1` [β-Carotene], in data set [1], the Saturated solubility is given as 0.1 or less mg/100 g. For the same compound, in data set [1] (21±2° C.), the Dissolution rate was 0.1% or less. In addition, the AUC in data set [2] was 75 ng·h/mL; in data set [3], 88.8 ng·h/mL; in data set [4], 131 ng·h/mL; in “in vivo”, 110 ng·h/mL.
As for `CC1=C(/C=C/C(C)=C/C=C/C(C)=C/C=C/C=C(C)/C=C/C=C(C)/C=C/C2=C(C)C[C@@H](O)CC2(C)C)C(C)(C)CCC1` [β-Cryptoxanthin], the Saturated solubility in data set [1] is listed as 0.1 or less mg/100 g. In data set [1] (21±2° C.), the Dissolution rate was 0.1% or less.
Take α-Glucosyl rutin: in data set [1], the Saturated solubility is 295 mg/100 g. The Dissolution rate in data set [1] (21±2° C.) amounted to 89%.

Values taken from patent US11684644B2, “Composition for promoting absorption of phytochemicals” (MEIJI CO., LTD., priority 2018, dated 2023).
